Measurements: patent US20220227796A1, “EGFR INHIBITORS, COMPOSITIONS AND METHODS THERE OF” (Betta Pharmaceuticals Co., Ltd., priority 2019, published 2022)
Where a name gives a salt, the structure may show the parent alone.

What was measured:
[1] = biological target: EGFR Δ19del/T790M/C797S (Homo sapiens, UniProt P00533, T790M/C797S, form not given); experiment: Kinase assay (mobility shift) for EGFR Δ19del/T790M/C797S; format: biochemical; conditions: read-out: EGFR Δ 19del/T790M/C797S IC50
Procedure: (§1) Enzyme reaction protocol are as followed:
(§2) 1. Preparing 1* Kinase buffer as followed.
(§3) 2. Preparing Compound Concentration Gradient: Compounds were tested at a concentration of 300 nM, diluted to 100-fold final concentration in 100% DMSO solution in 96-well plates, and compounds were diluted 3 times with Precision, 10 concentrations. Each concentration of the compound was then further diluted to a 5-fold final concentration of the intermediate dilution solution using 1* Kinase buffer.
(§4) 3. 5 μL of each of the prepared intermediate dilution compounds was separately added to the compound wells of the 384-well plate, and each concentration was tested for duplicate wells; 5 μL of 5% DMSO was added to the negative control wells and the positive control wells, respectively.
(§5) 4. 2.5-fold final concentration of the kinase solution was prepared using 1*Kinase buffer.
(§6) 6. Centrifuge at 1000 rpm for 30 seconds, shake the reaction plate and incubate for 10 minutes at room temperature.
(§7) 8. 10 μL of a 2.5-fold final concentration of a mixed solution of ATP and a substrate was added to initiate the reaction.
(§8) 9. Centrifuge the 384-well plate at 1000 rpm for 30 seconds, mix by shaking, and incubate at room temperature for the corresponding time.
(§9) 10. Add 30 μL of the stop solution to stop the kinase reaction, centrifuge at 1000 rpm for 30 seconds, and mix by shaking.
(§10) 11. Read the conversion rate with Caliper EZ Reader.
(§11) Convert conversion values to inhibition values:
(§12) Percent inhibition=(max−conversion % sample)/(max−min)*100.
(§13) “max” stands for the mean value of the positive control well ratio; “min” stands for the mean value of the negative control well; conversion % sample: sample conversion reading.
(§14) Fit the data in log(inhibitor) vs. response Variable slope of GraphPad Prism 5 to obtain IC50 values.
(§15) Equation used is: Y=Bottom+(Top−Bottom)/(1+(IC50/X)*HillSlope)

[2] = biological target: Ba/F3-Δ19del/T790M/C797S (Homo sapiens, UniProt P00533, T790M/C797S, cells depend on it, form not given); experiment: Ba/F3-Δ19del/T790M/C797S cells proliferation assay; format: cell-based; conditions: cell proliferation, 72 h, CellTiter Glo; class symbols; read-out: BaF3 Δ 19del/T790M/C797S IC50
Ba/F3-Δ19del/T790M/C797S, sequence (P00533 with tags, fused parts or gaps DEL746-750/T790M/C797S, form open): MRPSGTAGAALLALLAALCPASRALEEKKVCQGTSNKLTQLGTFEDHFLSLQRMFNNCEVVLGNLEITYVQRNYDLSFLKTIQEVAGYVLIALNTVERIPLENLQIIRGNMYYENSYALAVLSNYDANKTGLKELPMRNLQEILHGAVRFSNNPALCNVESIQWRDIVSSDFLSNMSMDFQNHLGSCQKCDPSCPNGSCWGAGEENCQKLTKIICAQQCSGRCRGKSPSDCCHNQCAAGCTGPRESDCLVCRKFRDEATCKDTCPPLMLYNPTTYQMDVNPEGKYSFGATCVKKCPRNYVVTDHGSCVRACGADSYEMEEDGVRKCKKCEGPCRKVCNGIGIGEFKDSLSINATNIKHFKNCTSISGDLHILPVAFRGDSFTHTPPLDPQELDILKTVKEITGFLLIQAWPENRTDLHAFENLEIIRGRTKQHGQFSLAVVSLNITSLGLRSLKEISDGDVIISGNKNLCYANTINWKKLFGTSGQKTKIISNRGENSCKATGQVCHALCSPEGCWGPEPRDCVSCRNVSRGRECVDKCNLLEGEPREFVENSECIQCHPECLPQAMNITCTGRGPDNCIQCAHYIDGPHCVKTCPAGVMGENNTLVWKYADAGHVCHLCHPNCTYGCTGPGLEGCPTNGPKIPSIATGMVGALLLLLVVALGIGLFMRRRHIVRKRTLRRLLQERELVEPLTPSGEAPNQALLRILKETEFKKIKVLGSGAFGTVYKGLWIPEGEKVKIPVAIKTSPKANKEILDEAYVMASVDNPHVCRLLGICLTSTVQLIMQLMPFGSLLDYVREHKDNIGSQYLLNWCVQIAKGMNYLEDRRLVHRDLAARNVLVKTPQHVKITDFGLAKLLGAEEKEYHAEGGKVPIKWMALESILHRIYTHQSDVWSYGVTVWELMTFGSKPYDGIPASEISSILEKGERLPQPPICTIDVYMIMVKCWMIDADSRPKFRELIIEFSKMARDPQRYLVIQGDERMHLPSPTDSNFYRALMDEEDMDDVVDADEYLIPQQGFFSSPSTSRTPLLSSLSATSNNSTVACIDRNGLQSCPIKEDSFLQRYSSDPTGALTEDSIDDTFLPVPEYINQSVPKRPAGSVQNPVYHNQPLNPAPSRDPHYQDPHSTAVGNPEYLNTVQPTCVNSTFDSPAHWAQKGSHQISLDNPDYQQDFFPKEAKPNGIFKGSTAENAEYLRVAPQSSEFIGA
Procedure: (§16) a) The medium was preheated in a 37 water bath in advance.
(§17) b) Remove the cryogenic vials from the liquid nitrogen tank, quickly put it into a 37° C. water bath, and completely melt it in 1 min.
(§18) c) Transfer the cell suspension to a 15 mL centrifuge tube containing 8 mL medium, centrifuge 1000 rpm, 5 min,
(§19) d) Discard the supernatant, resuspend the cells in 1 mL medium, and transfer to a 75 cm^2 flask containing 15 mL medium, culture the cells in an incubator at 37° C., 5% CO2.
(§20) a) The medium was preheated in a 37° C.; water bath in advance.
(§21) b) Collect cell to a 15 mL centrifuged tube, centrifuge at 1000 rpm for 5 min. Discard the supernatant, count, and make the cell density at 1×10^4 cells/mL, then place it in a 37° C., 5% CO2 incubator.
(§22) b) The above compound solution was diluted 1:20 times with culture medium to prepare a 10 fold working solution;
(§23) a) Take cells in log phase growth, centrifuge at 1000 rpm for 5 min, then resuspend the cells with culture medium, then count cells;
(§24) b) Cells were seeded to 96-well cell culture plate with density at 2000 cells/well;
(§25) The blank control well was a culture medium (0.5% DMSO);
(§26) b) The cells were incubated for an additional 72 h in the incubator.
(§27) a) Remove the 96-well cell culture plate and add 50 μl of CTG reagent (CellTiter Glo kit, promega, Cat #G7573).
(§28) b) Plate was shaked for 2 min and then let it cool for 10 min at room temperature.
(§29) c) The Luminescence signal value was read using a PerkinElmer reader.
(§30) Experimental Data Analysis
(§31) Data were analyzed using GraphPad Prism 6.0 software to obtain a fitted curve of compound activity.
(§32) Y=Bottom+(Top−Bottom)/(1+10^((Log IC50−X)*Hill Slope));
(§33) The cells proliferation assay results are expressed with IC50, shown as Table 2.

[3] = biological target: T1, Ba/F3-L858R/T790M/C797S (Homo sapiens, UniProt P00533, T790M/C797S/L858R, cells depend on it); experiment: Ba/F3-L858R/T790M/C797S cells proliferation assay; format: cell-based; conditions: cell proliferation, 72 h, CellTiter Glo; class symbols; read-out: BaF3 L858R/T790M/C797S IC50
T1 construct: BaF3 L858R/T790M/C797S IC50; other: cell proliferation, 72 h, CellTiter Glo; class symbols; numeric values
T1 sequence (P00533 whole entry T790M/C797S/L858R): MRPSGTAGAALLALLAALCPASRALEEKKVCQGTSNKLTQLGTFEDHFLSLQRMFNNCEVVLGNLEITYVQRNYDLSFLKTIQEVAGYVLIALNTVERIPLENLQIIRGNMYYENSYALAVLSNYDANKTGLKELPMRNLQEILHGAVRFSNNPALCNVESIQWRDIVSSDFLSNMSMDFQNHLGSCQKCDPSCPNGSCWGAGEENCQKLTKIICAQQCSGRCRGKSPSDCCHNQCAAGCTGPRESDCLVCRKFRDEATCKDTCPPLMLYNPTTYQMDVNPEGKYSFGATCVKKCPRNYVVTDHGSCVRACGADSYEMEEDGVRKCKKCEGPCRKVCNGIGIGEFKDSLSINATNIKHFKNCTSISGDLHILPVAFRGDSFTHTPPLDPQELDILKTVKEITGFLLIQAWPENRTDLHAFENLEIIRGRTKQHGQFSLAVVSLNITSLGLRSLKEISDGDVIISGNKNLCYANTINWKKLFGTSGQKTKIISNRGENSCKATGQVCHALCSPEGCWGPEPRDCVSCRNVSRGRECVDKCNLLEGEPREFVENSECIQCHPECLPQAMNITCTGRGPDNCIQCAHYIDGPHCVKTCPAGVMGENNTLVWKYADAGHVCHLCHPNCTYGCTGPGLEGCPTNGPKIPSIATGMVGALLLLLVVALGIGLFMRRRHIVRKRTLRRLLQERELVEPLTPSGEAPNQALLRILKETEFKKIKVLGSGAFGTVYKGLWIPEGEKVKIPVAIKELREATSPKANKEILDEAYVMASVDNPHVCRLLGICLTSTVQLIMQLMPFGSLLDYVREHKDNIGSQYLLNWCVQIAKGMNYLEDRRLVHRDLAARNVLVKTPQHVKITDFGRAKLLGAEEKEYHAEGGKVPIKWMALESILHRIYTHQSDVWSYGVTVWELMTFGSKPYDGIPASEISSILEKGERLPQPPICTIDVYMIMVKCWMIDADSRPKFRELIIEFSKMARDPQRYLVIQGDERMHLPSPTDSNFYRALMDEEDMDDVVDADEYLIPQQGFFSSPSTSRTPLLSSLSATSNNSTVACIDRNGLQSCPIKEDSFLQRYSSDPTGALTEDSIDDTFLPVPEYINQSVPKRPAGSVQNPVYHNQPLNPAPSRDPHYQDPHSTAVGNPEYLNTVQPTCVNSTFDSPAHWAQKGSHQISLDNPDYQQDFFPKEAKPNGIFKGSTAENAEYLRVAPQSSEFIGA
Procedure: as §16, §17, §18, §19, §20, §21, §22, §23, §24, §25, §26, §27, §28, §29, §30, §31, §32, §33

[4] = system: H1975(L858R/T790M); experiment: H1975 cells proliferation assay; format: cell-based; conditions: Homo sapiens, NCI-H1975; cell proliferation, 72 h, CellTiter Glo; class symbols; read-out: H1975 IC50
Procedure: (§34) Test 3 H1975 and HCC827 Cells Proliferation Assay
(§35) a) The medium was preheated in a 37° C. water bath in advance.
as §17
(§36) c) Transfer the cell suspension to a 15 mL centrifuge tube containing 8 mL medium, centrifuge 1000 rpm, 5 min.
as §19, §21, §22, §23
(§37) b) Cells were seeded to 96-well cell culture plate with density at 2000 cells/well (suitable for H1975 cell) and at 2500 cells/well (suitable for HCC827 cell);
as §25, §26, §27, §28, §29, §30, §31
(§38) Y=Bottom+(Top−Bottom)/(1+10^((Log IC50−X)*HillSlope));
as §33

[5] = system: HCC827(Δ19del); experiment: HCC827 cells proliferation assay; format: cell-based; conditions: Homo sapiens, HCC827; cell proliferation, 72 h, CellTiter Glo; class symbols; read-out: HCC827 IC50
Procedure: as §34, §35, §17, §36, §19, §21, §22, §23, §37, §25, §26, §27, §28, §29, §30, §31, §38, §33

[6] = biological target: EGFR L858R (Homo sapiens, UniProt P00533, L858R); experiment: Kinase assay (mobility shift) for EGFR L858R; format: biochemical
EGFR L858R, sequence (P00533 25-1210 L858R): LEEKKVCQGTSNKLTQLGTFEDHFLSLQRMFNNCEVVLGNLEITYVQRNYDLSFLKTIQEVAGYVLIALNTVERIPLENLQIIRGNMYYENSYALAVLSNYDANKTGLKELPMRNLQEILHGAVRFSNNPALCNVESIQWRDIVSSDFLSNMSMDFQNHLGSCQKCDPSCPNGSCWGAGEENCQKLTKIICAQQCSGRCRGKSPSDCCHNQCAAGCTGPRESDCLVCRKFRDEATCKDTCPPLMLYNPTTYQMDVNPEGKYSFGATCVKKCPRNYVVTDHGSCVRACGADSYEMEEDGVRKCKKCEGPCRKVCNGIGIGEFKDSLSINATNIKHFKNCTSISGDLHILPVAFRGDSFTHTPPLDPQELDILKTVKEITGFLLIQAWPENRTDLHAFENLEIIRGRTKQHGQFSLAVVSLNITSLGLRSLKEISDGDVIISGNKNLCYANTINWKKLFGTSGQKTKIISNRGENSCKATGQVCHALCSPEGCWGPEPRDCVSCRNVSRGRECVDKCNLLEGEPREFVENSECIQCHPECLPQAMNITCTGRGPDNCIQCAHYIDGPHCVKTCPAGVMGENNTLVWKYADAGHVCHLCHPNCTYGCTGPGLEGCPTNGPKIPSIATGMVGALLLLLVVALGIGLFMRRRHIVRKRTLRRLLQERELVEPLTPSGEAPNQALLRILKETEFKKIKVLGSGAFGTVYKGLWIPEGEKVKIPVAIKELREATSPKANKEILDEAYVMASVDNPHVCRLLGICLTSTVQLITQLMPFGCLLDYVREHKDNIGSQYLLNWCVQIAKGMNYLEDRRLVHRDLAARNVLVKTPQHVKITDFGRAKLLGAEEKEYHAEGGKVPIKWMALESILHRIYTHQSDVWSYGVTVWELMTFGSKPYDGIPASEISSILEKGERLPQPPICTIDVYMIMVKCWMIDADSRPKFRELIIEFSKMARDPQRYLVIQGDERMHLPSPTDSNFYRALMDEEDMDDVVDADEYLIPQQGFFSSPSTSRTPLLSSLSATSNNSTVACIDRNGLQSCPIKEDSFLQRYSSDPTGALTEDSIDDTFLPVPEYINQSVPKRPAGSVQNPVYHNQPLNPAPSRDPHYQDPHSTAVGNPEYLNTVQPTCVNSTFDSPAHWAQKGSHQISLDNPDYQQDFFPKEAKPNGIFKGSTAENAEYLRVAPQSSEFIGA
Procedure: as §1, §2, §3, §4, §5, §6, §7, §8, §9, §10, §11, §12, §13, §14, §15

[7] = biological target: EGFR T790M/L858R (Homo sapiens, UniProt P00533, L858R/T790M); experiment: Kinase assay (mobility shift) for EGFR T790M/L858R; format: biochemical
Procedure: as §1, §2, §3, §4, §5, §6, §7, §8, §9, §10, §11, §12, §13, §14, §15

EGFR Δ19del/T790M/C797S, sequence (P00533 with tags, fused parts or gaps DEL746-750/T790M/C797S, form open): as the sequence (P00533 with tags, fused parts or gaps DEL746-750/T790M/C797S, form open) above

| Structure (SMILES) | IC50 [1] | GI50 [2] | GI50 [3] | IC50 [4] | IC50 [5] | IC50 [6] | IC50 [7] |
| --- | --- | --- | --- | --- | --- | --- | --- |
| C=CC(=O)Nc1cc(Nc2ncc(Cl)c(Nc3ccc4ncccc4c3P(C)(C)=O)n2)ccc1N1CCC2(CC1)CC(N(C)C)C2 [Compound 30, N-(5-((5-chloro-4-((5-(dimethylphosphoryl)quinolin-6-yl)amino)pyrimidin-2-yl)amino)-2-(2-(dimethylamino)-7-azaspiro[3.5]nonan-7-yl)phenyl)acrylamide] | < 10 nM | < 10 nM | 10 to 50 nM | 10 to 50 nM | 10 to 50 nM | – | – |
| C=CC(=O)Nc1cc(Nc2ncc(Cl)c(Nc3ccccc3P(C)(C)=O)n2)ccc1N(C)CCN1CCCC1 [Compound 18, N-(5-((5-chloro-4-((2-(dimethylphosphoryl)phenyl)amino)pyrimidin-2-yl)amino)-2-(methyl(2-(pyrrolidin-1-yl)ethyl)amino)phenyl)acrylamide] | < 10 nM | 10 to 50 nM | 10 to 50 nM | < 10 nM | < 10 nM | < 10 nM | < 10 nM |
| C=CC(=O)Nc1cc(Nc2ncc(Br)c(Nc3ccc4nccnc4c3P(C)(C)=O)n2)ccc1N(C)CCN(C)C [Compound 34, N-(5-(5-bromo-4-(5-(dimethylphosphoryl)quinoxalin-6-ylamino)pyrimidin-2-ylamino)-2-((2-(dimethylamino)ethyl)(methyl)amino)phenyl)acrylamide] | < 10 nM | < 10 nM | < 10 nM | < 10 nM | < 10 nM | – | – |
| C=CC(=O)Nc1cc(Nc2ncc(Cl)c(Nc3ccccc3P(C)(C)=O)n2)ccc1N1CCC(N2CCN(C)CC2)CC1 [Compound 16, N-(5-((5-chloro-4-((2-(dimethylphosphoryl)phenyl)amino)pyrimidin-2-yl)amino)-2-(4-(4-methylpiperazin-1-yl)piperidin-1-yl)phenyl)acrylamide] | < 10 nM | 10 to 50 nM | 10 to 50 nM | < 10 nM | 10 to 50 nM | < 10 nM | < 10 nM |
| C=CC(=O)Nc1cc(Nc2ncc(Cl)c(Nc3ccc4nccnc4c3P(C)(C)=O)n2)ccc1N1CCC2(CC1)CC(N(C)C)C2 [Compound 10, N-(5-((5-chloro-4-((5-(dimethylphosphoryl)quinoxalin-6-yl)amino)pyrimidin-2-yl)amino)-2-(2-(dimethylamino)-7-azaspiro[3.5]nonan-7-yl)phenyl)acrylamide] | < 10 nM | < 10 nM | < 10 nM | < 10 nM | 10 to 50 nM | – | – |
| C=CC(=O)Nc1cc(Nc2ncc(Cl)c(Nc3ccccc3P(C)(C)=O)n2)ccc1N(C)CCN(C)C [Compound 15, N-(5-((5-chloro-4-((2-(dimethylphosphoryl)phenyl)amino)pyrimidin-2-yl)amino)-2-((2-(dimethylamino)ethyl)(methyl)amino)phenyl)acrylamide] | < 10 nM | 10 to 50 nM | 10 to 50 nM | < 10 nM | < 10 nM | < 10 nM | < 10 nM |
| C=CC(=O)Nc1cc(Nc2ncc(Cl)c(Nc3ccccc3P(C)(C)=O)n2)ccc1N1CCC2(CCC(N(C)C)CC2)CC1 [Compound 1, N-(5-((5-chloro-4-((2-(dimethylphosphoryl)phenyl)amino)pyrimidin-2-yl)amino)-2-(9-(dimethylamino)-3-azaspiro[5.5]undecan-3-yl)phenyl)acrylamide] | < 10 nM | < 10 nM | < 10 nM | < 10 nM | < 10 nM | 10 to 100 nM | < 10 nM |
| C=CC(=O)Nc1cc(Nc2ncc(Cl)c(Nc3ccc4ccccc4c3P(C)(C)=O)n2)ccc1N1CCC2(CC1)CC(N(C)C)C2 [Compound 23, N-(5-((5-chloro-4-((1-(dimethylphosphoryl)naphthalen-2-yl)amino)pyrimidin-2-yl)amino)-2-(2-(dimethylamino)-7-azaspiro[3.5]nonan-7-yl)phenyl)acrylamide hydrochloric acid salt] | < 10 nM | < 10 nM | < 10 nM | 10 to 50 nM | 10 to 50 nM | – | – |
| C=CC(=O)Nc1cc(Nc2ncc(Br)c(Nc3ccc4nccnc4c3P(C)(C)=O)n2)ccc1N1CCC2(CC1)CC(N(C)C)C2 [Compound 35, N-(5-(5-bromo-4-(5-(dimethylphosphoryl)quinoxalin-6-ylamino)pyrimidin-2-ylamino)-2-(2-(dimethylamino)-7-azaspiro[3.5]nonan-7-yl)phenyl)acrylamide] | < 10 nM | < 10 nM | < 10 nM | < 10 nM | < 10 nM | – | – |
| C=CC(=O)Nc1cc(Nc2ncc(Cl)c(Nc3ccccc3P(C)(C)=O)n2)ccc1N1CCN2CCC[C@H]2C1 [Compound 17, (S)—N-(5-((5-chloro-4-((2-(dimethylphosphoryl)phenyl)amino)pyrimidin-2-yl)amino)-2-(hexahydropyrrolo[1,2-a]pyrazin-2(1H)-yl)phenyl)acrylamide] | < 10 nM | 10 to 50 nM | 10 to 50 nM | 10 to 50 nM | 10 to 50 nM | < 10 nM | < 10 nM |
| C=CC(=O)Nc1cc(Nc2ncc(Cl)c(Nc3ccccc3P(C)(C)=O)n2)ccc1N1CCC2(CC1)CC(N(C)C)C2 [Compound 36, N-(5-((5-chloro-4-((2-(dimethylphosphoryl)phenyl)amino)pyrimidin-2-yl)amino)-2-(2-(dimethylamino)-7-azaspiro[3.5]nonan-7-yl)phenyl)acrylamide] | < 10 nM | < 10 nM | < 10 nM | < 10 nM | < 10 nM | < 10 nM | < 10 nM |
| CN(C)C/C=C/C(=O)Nc1cc(Nc2ncc(Cl)c(Nc3ccccc3P(C)(C)=O)n2)ccc1N1CCC2(CC1)CC(N(C)C)C2 [Compound 8, (E)-N-(5-((5-chloro-4-((2-(dimethylphosphoryl)phenyl)amino)pyrimidin-2-yl)amino)-2-(2-(dimethylamino)-7-azaspiro[3.5]nonan-7-yl)phenyl)-4-(dimethylamino)but-2-enamide] | < 10 nM | 10 to 50 nM | 10 to 50 nM | 10 to 50 nM | 10 to 50 nM | – | – |
